Assay results as given in US9809640B2, “ApoE peptide dimers and uses thereof” (priority 2010, dated 2017).
Positions of bridges follow the written chain, without caps; N, C: chain ends. Chains are numbered I, II in the order given.

What was measured:
[1] = test system: MDA-MB-231 breast cancer cells; type: cell-based; settings: MB231, ~24 hours
Description: FIG. 14A: Dose response curve of COG445 on proliferation of U87 (open circles) and MDA-MB-231 (filled circles) cells as measured by MTT reduction. FIG. 14B: Dose response curve of COG445 on proliferation of MDA-MB-231 cells as measured by cell count.
Next, we examined the potency of an ApoE peptide dimer versus the monomeric form on proliferation of the MDA-MB-231 breast cancer cell line. MDA-MB-231 cells were treated with various concentrations of either COG435 (monomer; SEQ ID NO: 90) or COG493 (a BMOE-linked dimer of COG 435) peptides for 48 hours. Following peptide treatment, cells were quantified using a MTT assay.
Because COG445 inhibited Akt activation and downstream signaling, we examined the effects of COG445 on cellular proliferation. Adherent MB231 and U87 cells were grown for ˜24 hours in the presence of COG445 and cellular proliferation was measured by MTT reduction. […] Furthermore, COG445 inhibited MB231 cellular proliferation as determined by cell count (FIG. 14B). Approximately 6×10^4 cells were plated in growth media (RPMI+10% FBS) for 24-hours with increasing concentrations of COG445. […] However at concentrations ≧1 μM COG445, there appears to be a loss of cells. This is partially explained by decreased proliferation, although it is possible that the rate of cellular degradation was increased in the presence of COG445.

U87MG glioblastoma cells = type: cell-based; settings: U87, ~24 hours
EGFR = assay: EGF-induced EGFR activation, Western blot; type: cell-based; settings: up to 1 μM, U87 and MB231, EGF
Excerpt: (§1) FIGS. 10A-10B. […] FIG. 10A: Western blot analysis of U87 glioblastoma cells exposed to the indicated concentrations of COG445 peptide in the presence of EGF. The blot is probed with antibodies for the activated EGF receptor (P-EGFR), total EGF receptor, activated PDK1 (P-PDK1), and total PDK1. FIG. 10B: Western blot and densitometry analysis of Akt activation induced by EGF in U87 cells in the presence of increasing concentrations of COG445.
(§2) Akt signaling is often dysregulated in cancers thereby promoting cellular survival and proliferation. […] Given the effect of ApoE peptides on other inflammatory pathologies, we investigated the effect of an ApoE peptide dimer on Akt signaling in breast and brain cancer cells. A disulfide dimer of COG112 (SEQ ID NO: 1) was prepared as described in Example 1 (COG445). Adherent breast cancer cells, MDA-MB-231 (MB231), or glioblastoma cells, U87-MG (U87), were serum starved overnight and then exposed to COG445 for 2 hours before stimulating with epidermal growth factor (EGF) for 5 minutes. […] EGFR activation results in the activation of the PI3K/Akt signaling pathway, which is mediated by PDK1 activation.

Akt = assay: EGF-induced Akt activation, Western blot; type: cell-based
Excerpt: as §1, §2

PP2A = assay: Phosphatase activity of PP2A immunoprecipitated from MDA-MB-231 cells; type: cell-based; settings: concentrations ≧100 nM, EGF-stimulated MB231
Excerpt: FIG. 12A: Total PP2A activity immunoprecipitated from MDA-MB-231 cells treated with EGF and increasing concentrations of COG445. FIG. 12B: Western blot and densitometry analysis of total c-myc protein levels in U87 cells treated with the indicated concentrations of COG445 in the presence or absence of okadaic acid. FIG. 12C: Immunoprecipitation of the catalytic subunit of PP2A from MDA-MB-231 cells exposed to EGF and two different concentrations of COG445. The blot is probed for I2PP2A (SET) and PP2A catalytic subunit.
To further characterize the effect of COG445 on PP2A activity, MB231 cells were treated as above and the phosphatase activity of immunoprecipitated PP2A was measured. EGF stimulation caused a significant decrease in total PP2A activity compared to untreated serum starved cells (FIG. 12A). […] To further explore the extent of PP2A activation in response to COG445, total c-myc protein levels were determined by western blot analysis. C-myc is a substrate for PP2A and upon dephosphorylation is metabolized by ubiquitination and proteasomal degradation. In both U87 (FIG. 12B) and MB231 (data not shown) cell lines, c-myc levels decreased after a two-hour exposure to COG445 in a dose-dependent manner, reaching statistical significance at 1000 nM.

[2] = molecular target: recombinant human PP2A catalytic subunit (Homo sapiens, UniProt P67775); assay: Recombinant human PP2A catalytic subunit activity; type: biochemical; settings: up to 10 μM
Description: To examine the mechanism of COG445 on PP2A activity, recombinant human PP2A catalytic subunit was incubated with COG445 and activity was measured. […] To further explore the changes of PP2A protein complexes, co-immunoprecipitation experiments were performed on MB231 cells.

GSK-3β = GSK-3β phosphorylation in MB231 cells, Western blot; type: cell-based; settings: markedly reduced at ≧100 nM
Excerpt: FIG. 13A: Western blot and densitometry analysis of phosphorylated m-TOR levels in MDA-MB-231 cells treated with EGF and the indicated concentrations of COG445 in the presence or absence of okadaic acid. FIG. 13B: Western blot analysis of phosphorylated GSK-3β levels in MDA-MB-231 cells treated with EGF and the indicated concentrations of COG445 in the presence or absence of okadaic acid.
Akt exerts its proliferative signal by phosphorylating protein substrates such as mTOR and GSK-3β. To examine the effects of COG445 on downstream Akt signaling in MB231 cells, mTOR activation and GSK-3β inhibition was measured by western blot analysis. […] The reduction in mTOR and GSK-3β phosphorylation was eliminated in the presence of okadaic acid, further evidence that PP2A mediates the effects of COG445 on Akt signaling.

MB231 cells = assay: Apoptosis after 24 hours of COG445; type: cell-based; settings: 1-1000 nM

Chain of recombinant human PP2A catalytic subunit (P67775 whole entry): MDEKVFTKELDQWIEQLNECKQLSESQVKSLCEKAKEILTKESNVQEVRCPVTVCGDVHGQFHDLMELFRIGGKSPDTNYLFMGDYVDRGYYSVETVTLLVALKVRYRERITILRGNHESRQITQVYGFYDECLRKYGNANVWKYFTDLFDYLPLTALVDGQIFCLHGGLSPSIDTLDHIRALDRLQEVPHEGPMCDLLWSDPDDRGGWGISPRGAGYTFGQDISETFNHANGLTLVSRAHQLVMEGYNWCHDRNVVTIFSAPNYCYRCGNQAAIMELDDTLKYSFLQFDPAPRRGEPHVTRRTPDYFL

Substance: I: Ac-RQIKIWFQNRRMKWKKCLRVRLASHLRKLRKRLL-NH2 / II: Ac-RQIKIWFQNRRMKWKKCLRVRLASHLRKLRKRLL-NH2 (disulfide I:17-II:17) [COG445, COG112-C-C-COG112]
- proliferation by MTT reduction [1]: dose-dependent decrease
- proliferation by MTT reduction (U87MG glioblastoma cells): dose-dependent decrease
- EGFR activation (tyrosine 1045 phosphorylation) (EGFR): did not alter
- Akt serine 473 phosphorylation (Akt; 100 nM, both cell lines, significant at 1 μM): decreased
- Akt activation (Akt; MB231 and U87 cells, EGF): dose-dependent decrease
- Akt phosphorylation in the presence of okadaic acid (Akt; MB231 cells): did not inhibit
- PP2A activity (PP2A): significant (P<0.01) increase
- rate of phosphatase activity [2]: did not have any effect
- GSK-3β phosphorylation upon EGF stimulation (GSK-3β): dose-dependent decrease
- apoptosis (MB231 cells): no indication of apoptosis
